Measured values taken from patent publication US7195901B1 (priority 2004, dated 2007).

Test system: yeast endogenous DGAT
Assay type: biochemical, S. cerevisiae
Settings: 1 mM diricinolein; yeast grown under repression (2% glucose) condition

1,2-diricinolein
absolute incorporation of 14C-oleate into RRO: less than 20 pmol/mg/min
